Laboratory results reported in patent publication US20230190740A1, “AN NK-1 RECEPTOR ANTAGONIST FOR TREATING A DISEASE SELECTING FROM SEPSIS, SEPTIC SHOCK, ACUTE RESPIRATORY DISTRESS SYNDROME (ARDS) OR MULTIPLE ORGAN D[…] (MODS)” (NeRRe Therapeutics Limited, priority 2020, published 2023).

Experiments:
[1] = system: proinflammatory mediators in BALF after intranasal lipopolysaccharide (LPS) challenge; assay: LPS induced neutrophilia model of lung inflammation and injury (mouse model of ARDS): proinflammatory mediators in BALF; format: in vivo, female C57BL6J mice; set-up: key to IL-1β, 4 hr Statistical significance / TNFα, 24 hr Statistical significance / VEGF-A, 4 hr Statistical significance / MCP-1, 4 hr Statistical significance: * p < 0.05; ** p < 0.01; *** p < 0.001; **** p < 0.0001.; not significant (NS)
Method: (§1) Orvepitant was evaluated in the established mouse model of ARDS; the LPS induced neutrophilia model of lung inflammation and injury.
(§2) The effects of vehicle control or orvepitant (250 mg/kg of orvepitant maleate anhydrous crystalline form [Form 1]), dosed orally 1 hour prior to challenge, on pulmonary inflammation induced by a single intranasal challenge dose (10 ug/kg) of either proinflammatory lipopolysaccharide (LPS), or phosphate-buffered saline (PBS) control, was investigated in female C57BL6J mice. Animals were euthanised at either 4 or 24 hours, and inflammatory cell counts and mediators were assayed in bronchoalveolar lavage (BALF) from all animals.
(§3) Key: Bronchoalveolar lavage fluid (BALF); intranasal (in); lipopolysaccharide (LPS); number of female C57BL6J mice/group (n); per os (po); phosphate buffered saline (PBS).

[2] = system: pulmonary inflammation induced by intranasal lipopolysaccharide (LPS) challenge; assay: LPS induced neutrophilia model of lung inflammation and injury (mouse model of ARDS): inflammatory cell counts in BALF; format: in vivo, female C57BL6J mice; set-up: key to WBC cell counts, 4 hr Statistical significance / Neutrophils cell counts, 4 hr Statistical significance: * p < 0.05; ** p < 0.01; *** p < 0.001; **** p < 0.0001.; not significant (NS)
Method: as §1, §2, §3

[3] = 250 mg/kg per os, BALF at 4 hr after LPS intranasal challenge, vs vehicle/LPS group
[4] = 250 mg/kg per os, BALF at 24 hr after LPS intranasal challenge, vs vehicle/LPS group
[5] = 250 mg/kg per os 1 hour prior to LPS intranasal challenge, BALF at 4 hr, vs vehicle/LPS group
[6] = 250 mg/kg per os 1 hour prior to LPS intranasal challenge, BALF at 24 hr, vs vehicle/LPS group

For `Cc1cc(F)ccc1[C@H]1C[C@@H](N2CCN3C(=O)CC[C@H]3C2)CCN1C(=O)N(C)[C@H](C)c1cc(C(F)(F)F)cc(C(F)(F)F)c1` [orvepitant, 2-(R)-(4-Fluoro-2-methyl-phenyl)-4-(S)-((8aS)-6-oxo-hexahydro-pyrrolo[1,2-a]-pyrazin-2-yl)-piperidine-1-carboxylic acid [1-(R)-(3,5-bis-trifluoromethyl-phenyl)-ethyl]-methylamide], the “effect on range of proinflammatory mediators measured in the BALF” value ([1]; 250 mg/kg orally, at both 4 and 24 hours, vs vehicle treated LPS-challenged animals) was “reduced”, the “IL17A, 4 hr % mean reduction” value [1, 3] was “(36%)” and the “IL17A, 4 hr Statistical significance” value [1, 3] was “**** (**** p < 0.0001.)”. For the same compound, the “IL-1β, 4 hr Statistical significance” value [1, 3] was “NS”, the “IL-6, 4 hr % mean reduction” value [1, 3] was “(44%)” and the “IL-6, 4 hr Statistical significance” value [1, 3] was “** (** p < 0.01)”. The “MCP-1, 4 hr Statistical significance” value [1, 3] was “NS”, the “TNFα, 4 hr % mean reduction” value [1, 3] was “(26%)” and the “TNFα, 4 hr Statistical significance” value [1, 3] was “* (* p < 0.05)”. The “VEGF-A, 4 hr Statistical significance” value [1, 3] was “NS”, the “IL17A, 24 hr % mean reduction” value [1, 4] was “(47%)” and the “IL17A, 24 hr Statistical significance” value [1, 4] was “* (* p < 0.05)”. The “IL-1β, 24 hr % mean reduction” value [1, 4] was “(33%)”, the “IL-6, 24 hr % mean reduction” value [1, 4] was “(39%)” and the “MCP-1, 24 hr % mean reduction” value [1, 4] was “(56%)”. The “MCP-1, 24 hr Statistical significance” value [1, 4] was “** (** p < 0.01)”, the “TGF-β1, 24 hr % mean reduction” value [1, 4] was “(62%)” and the “TGF-β1, 24 hr Statistical significance” value [1, 4] was “*** (*** p < 0.001)”. The “TNFα, 24 hr Statistical significance” value [1, 4] was “NS”, the “VEGF-A, 24 hr % mean reduction” value [1, 4] was “(32%)” and the “effect on inflammatory cell migration” value ([2]; 250 mg/kg orally, ARDS LPS induced neutrophilia model) was “ameliorated”. The “Neutrophils cell counts, 4 hr Statistical significance” value [2, 5] was “NS”, the “WBC cell counts, 4 hr Statistical significance” value [2, 5] was “NS” and the “Neutrophils cell counts, 24 hr Statistical significance” value [2, 6] was “*** (*** p < 0.001)”. The “WBC cell counts, 24 hr Statistical significance” value [2, 6] was “*** (*** p < 0.001)”.
